Holding throughout (type): cell-based
Assay [1] deals with T1, human β3-adrenergic receptor (Homo sapiens, UniProt P13945).
T1 construct: expressed in transfected cells; host or cells: CHO (clone CHO/pKREX10-36)
Put plainly: cAMP accumulation in CHO/pKREX10-36 cells highly expressing human β3-adrenergic receptor. Here is the method:
(§1) The cells were peeled off by incubation with phosphate-buffered saline containing 0.5 mM EDTA at 37° C. for 10 minutes after the medium was removed. The CHO/pKREX10-36 cells were collected by centrifugation, and suspended in Hanks' buffer (ICN Biomedicals) containing 1 mM L-ascorbic acid and 1 mM 3-isobutyl-1-methylxanthine at the concentration of about 5×10^5 cells/ml. This suspension (100 μl) and a test compound were mixed in the same buffer (500 μl) and incubated at 37° C. for 30 minutes, followed by boiling for 5 minutes to terminate the reaction. After centrifugation of the reaction mixture, the amount of cAMP in the supernatant was measured by using cAMP EIA System (Amersham).
On the technique in general: Cyclic AMP is a second messenger, typically raised through Gs and lowered through Gi signalling.

For assay [2], the target named is T2, human β2-adrenergic receptor (Homo sapiens, UniProt P07550).
T2 construct: expressed in transfected cells; host or cells: CHO (clone CHO/pKREX21-8)
T2 sequence (P07550 whole entry): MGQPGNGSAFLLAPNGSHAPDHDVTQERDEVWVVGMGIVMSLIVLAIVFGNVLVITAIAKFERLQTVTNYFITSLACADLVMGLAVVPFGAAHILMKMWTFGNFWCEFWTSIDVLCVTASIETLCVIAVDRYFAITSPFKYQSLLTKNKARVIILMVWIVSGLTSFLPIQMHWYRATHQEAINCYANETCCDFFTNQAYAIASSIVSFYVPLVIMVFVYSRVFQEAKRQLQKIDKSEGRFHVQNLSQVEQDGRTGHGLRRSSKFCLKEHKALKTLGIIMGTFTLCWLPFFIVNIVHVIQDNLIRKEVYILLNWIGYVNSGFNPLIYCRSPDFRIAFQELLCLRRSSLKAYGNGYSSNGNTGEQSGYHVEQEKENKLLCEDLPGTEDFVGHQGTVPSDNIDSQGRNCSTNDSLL
The experiment in a line: cAMP accumulation in CHO/pKREX21-8 cells highly expressing human β2-adrenergic receptor. Here is the method:
as §1
(§2) Similarly, the amount of cAMP was measured in the same manner by using CHO/pKREX21-8 for highly expressing human β2-adrenergic receptor, or by using CHO/pKREX23-30 for highly expressing human β1-adrenergic receptor instead of the CHO/pKREX10-36 for highly expressing human β3-adrenergic receptor.

Assay [3] concerns the target T3, human β1-adrenergic receptor (Homo sapiens, UniProt P08588).
T3 construct: expressed in transfected cells; host or cells: CHO (clone CHO/pKREX23-30)
Put plainly: cAMP accumulation in CHO/pKREX23-30 cells highly expressing human β1-adrenergic receptor. Here is the method: as §1, §2

The term EC50 denotes the concentration that produces a half-maximal response.

T3 sequence (P08588 whole entry): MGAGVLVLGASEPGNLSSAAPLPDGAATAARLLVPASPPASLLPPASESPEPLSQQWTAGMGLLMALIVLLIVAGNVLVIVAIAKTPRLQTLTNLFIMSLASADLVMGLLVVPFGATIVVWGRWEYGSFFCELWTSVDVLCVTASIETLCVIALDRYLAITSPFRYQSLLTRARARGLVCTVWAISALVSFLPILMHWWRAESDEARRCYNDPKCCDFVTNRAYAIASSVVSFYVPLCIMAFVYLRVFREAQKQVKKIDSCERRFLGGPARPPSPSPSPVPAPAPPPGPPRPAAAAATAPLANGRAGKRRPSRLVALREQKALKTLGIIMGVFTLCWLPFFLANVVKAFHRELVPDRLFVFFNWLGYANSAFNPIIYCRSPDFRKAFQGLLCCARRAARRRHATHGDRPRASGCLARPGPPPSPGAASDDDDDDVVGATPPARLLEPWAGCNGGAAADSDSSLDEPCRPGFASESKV
T1 sequence (P13945 whole entry): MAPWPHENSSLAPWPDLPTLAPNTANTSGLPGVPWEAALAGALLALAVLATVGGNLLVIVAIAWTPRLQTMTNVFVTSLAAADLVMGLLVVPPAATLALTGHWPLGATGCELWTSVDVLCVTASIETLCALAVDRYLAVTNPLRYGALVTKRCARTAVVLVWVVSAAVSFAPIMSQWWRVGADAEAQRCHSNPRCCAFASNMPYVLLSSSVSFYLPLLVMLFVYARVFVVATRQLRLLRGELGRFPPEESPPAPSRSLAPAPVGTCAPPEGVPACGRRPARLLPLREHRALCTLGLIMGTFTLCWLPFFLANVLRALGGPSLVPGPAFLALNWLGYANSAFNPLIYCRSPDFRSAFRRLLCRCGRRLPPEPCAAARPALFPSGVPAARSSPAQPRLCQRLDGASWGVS

With `C[C@H](Cc1c[nH]c2c(OCC(=O)O)cccc12)NC[C@H](O)c1cccc(Cl)c1` [Compound A, [3-[(2R)-[[(2R)-(3-chlorophenyl)-2-hydroxyethyl]amino]propyl]-1H-indol-7-yloxy]acetic acid], the EC50 was 0.27 nM in assay [1] (cAMP accumulation, CHO/pKREX10-36, 37° C. 30 minutes); 21 nM in assay [2] (cAMP accumulation, CHO/pKREX21-8); 3.5 nM in assay [3] (cAMP accumulation, CHO/pKREX23-30). Also, the “stimulating activity of human β3-adrenergic receptor (in words)” value in assay [1] (conclusion from Table 1) was “potent”. Further, the Emax in assay [1] (relative maximal response, 10^-5 M (−)-isoproterenol = 100%, read-out: β3-receptor I.A. (intrinsic activity)) was found to be 110%; in assay [2] (relative maximal response, 10^-5 M (−)-isoproterenol = 100%, read-out: β2-receptor I.A. (intrinsic activity)), 45%; in assay [3] (relative maximal response, 10^-5 M (−)-isoproterenol = 100%, read-out: β1-receptor I.A. (intrinsic activity)), 83%. In addition, in assay [2] (conclusion from Table 1), the “stimulating activity of human β2-adrenergic receptor (in words)” value is recorded as “quite weak”. Moreover, the “stimulating activity of human β1-adrenergic receptor (in words)” value in assay [3] (conclusion from Table 1) is “quite weak”.

The values above are taken from patent US6458824B1, “Solid preparation” (Dainippon Pharmaceutical Co., Ltd., priority 1999, dated 2002).
